Assay results as given in PMC5597121, “The human bitter taste receptor T2R38 is broadly tuned for bacterial compounds” (PLoS ONE, 2017).
Several values for one entry are separate records, joined by “and”; a condition that tells them apart may be missing. Equal entries are not always repeated. Entries after “also recorded” stand apart in the source; their conditions may differ. Where two headings read alike, the source gives them in different places.

Key:
T2R38 = target: T1, T2R38 (Homo sapiens, UniProt P59533, A49P/I296V); assay: Single cell calcium imaging, Peakrapid cells (Gα16gustducin44) transiently transfected with T2R38; format: cell-based; conditions: for average calcium response, % of the one induced by 0.1 mM of PTC: dissolved in DMSO 1.5% (209 mM); for specific activation of T2R38: ethanol-solubilized; for EC50: concentration-response curve, read-out: EC50; for response of T2R38: solubilized in the aqueous buffer, 2 mM
T1 construct: leader: first 45 amino acids of rat somatostatin receptor subtype 3 (SSTR3) (N); expressed in transfected cells; host or cells: Peakrapid cells (HEK293 derivative, ATCC CRL-2828) stably expressing Galpha16gustducin44, co-transfected with human RTP4
T1 sequence (P59533 1-333 A49P/I296V): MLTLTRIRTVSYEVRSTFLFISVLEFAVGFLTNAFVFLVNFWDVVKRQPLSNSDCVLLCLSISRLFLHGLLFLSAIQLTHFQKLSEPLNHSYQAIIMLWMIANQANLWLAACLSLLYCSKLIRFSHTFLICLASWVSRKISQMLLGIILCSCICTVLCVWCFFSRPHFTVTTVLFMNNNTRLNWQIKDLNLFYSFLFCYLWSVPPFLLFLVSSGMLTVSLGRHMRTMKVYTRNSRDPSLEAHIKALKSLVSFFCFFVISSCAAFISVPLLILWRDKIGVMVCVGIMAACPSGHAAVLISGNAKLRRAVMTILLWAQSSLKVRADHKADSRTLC
Text: The coding sequences of either the functional (PAV, GenBank accession number AY258597.1) and non-functional (AVI, GenBank accession number AF494231.1) were amplified from human genomic DNA by polymerase chain reaction.
These coding sequences were cloned in a pEFIB backbone vector in translational fusion with the coding sequence of a leader sequence corresponding to the 45 first amino acids of the rat somatostatin receptor subtype 3 [20]. The constructs were verified by sequencing. The coding sequence of RTP4 (Genbank accession number AY562238.1) was amplified from human spleen cDNA and cloned a pCI backbone vector.
The Gα16gustducin44 sequence was generated by swapping the last 132 nucleotides of the G α16 with the corresponding terminal sequence of the Gα-gustducin [21] and was cloned in a pIRES-Puro plasmid. This vector was transfected in the Peakrapid cell line (ATCC reference: CRL-2828™; purchased from LGC Standards SARL, Molsheim, FRANCE), HEK293 cell line derivative, cultured in EMEM culture medium (reference BE12-136F; Lonza, Vervier, BELGIUM) supplemented with 10% of foetal bovine serum (Sigma-Aldrich, Bornem, Belgium) and 1 μg/ml of Puromycin to allow the selection of recombinant cell populations. Cell clones expressing the Gα16gustducin44 were selected and the clone presenting the best functional response of T2R38 to phenylthicarbamide was used for the study (see below).
(§1) The Peakrapid cell line expressing stably a chimeric Gα16gustducin44 G protein [21] was used. 40 000 cells were seeded in each well of a black/clear poly-D-lysine cellware pre-coated 96-well plate (Biocoat®, Becton-Dickinson, Erembodegem, Belgium) and transiently transfected with 50 ng of plasmid DNA containing the receptor sequence or not (empty vector) and with 50 ng of chaperone protein RTP4 per well. Forty hours after transfection, cells were incubated with the calcium-sensitive dye Fluo4 (Life Technologies, Oregon, USA) solubilized at 10 μg/ml in a buffer containing EMEM (150 mM NaCl, 5 mM KCl, 2 mM CaCl2, 1.2 mM MgCl2, 10 mM glucose), 10 mM HEPES, 0.01% (v/v) Pluronic F127, 0.1% (w/v) bovine serum albumin. After 1 h incubation at 37°C, cells were rinsed twice with the same buffer without Fluo4 and left in 50 μl buffer (prior ligand injection). Measurement were performed on a platform based on a motorized Axiobserver Z1 fluorescence microscope piloted by a Axiovision software (Zeiss, Jena, Germany) as described previously. For each selected well, images were taken 1 per second, during 30 seconds. 50 μl of the buffer containing the ligand twice concentrated was injected on the 2nd second of the time lapse record.
After time lapse record, the number of responding cells in each injected well was determined using ImageJ 1.34 (Rasband, W.S., ImageJ, National Institutes of Health, Bethesda, Maryland, USA, http://rsb.info.nih.gov/ij/1997-2004), and expressed as the percentage of the surface of a microscope field covered by activated cells with respect to the total surface of the field covered by confluent cells. Automated determination of the surface occupied by responding cells is easier to perform than a cell counting. The resulting percentage of positive surface provided a convenient estimation of the percentage of responding cells, as observed by comparing the percentage of positive surface and percentage of responsive cells determined by direct counting, in the same experiment. In agreement with the literature, the percentage of responding cells was proportional to the agonist concentration. During experiment in each plate, at least 2 wells were tested with phenylthiocarbamide (PTC) at 0.1 mM, which is one of the best characterized agonist of T2R38 in the literature. The activation of T2R38 by PTC allows normalization of the result of other tested molecules. The results were thus expressed as the percentage of PTC activation. […]

[1] = tested on: mock transfected cells (empty vector); assay: Single cell calcium imaging, control: mock transfected (empty vector) Peakrapid cells; format: cell-based, human
Protocol: as §1
After time lapse record, the number of responding cells in each injected well was determined using ImageJ 1.34 (Rasband, W.S., ImageJ, National Institutes of Health, Bethesda, Maryland, USA, http://rsb.info.nih.gov/ij/1997-2004), and expressed as the percentage of the surface of a microscope field covered by activated cells with respect to the total surface of the field covered by confluent cells. Automated determination of the surface occupied by responding cells is easier to perform than a cell counting. The resulting percentage of positive surface provided a convenient estimation of the percentage of responding cells, as observed by comparing the percentage of positive surface and percentage of responsive cells determined by direct counting, in the same experiment. In agreement with the literature, the percentage of responding cells was proportional to the agonist concentration. During experiment in each plate, at least 2 wells were tested with phenylthiocarbamide (PTC) at 0.1 mM, which is one of the best characterized agonist of T2R38 in the literature. The activation of T2R38 by PTC allows normalization of the result of other tested molecules. The results were thus expressed as the percentage of PTC activation. In scaling calcium imaging assays using this latter receptor, concentration-responses curves were performed and data were fitted to a four parameter logistic equation: y=min+ (max− min)/1+10 ^(logEC50−x)nH . Min and max are the minimum and the maximum values of the percentage of cell-activated surface respectively, y is the percentage of cell-activated surface at the x concentration and nH is the Hill coefficient.

[2] = 1mM in DMSO 1.5%, listed as HSL-C12
[3] = 1mM in EtOH 2%, listed as HSL-C12
[4] = 2mM (no organic solvent), listed as HSL-C4
[5] = 2mM in DMSO 1.5%, listed as HSL-C4
[6] = 2mM in EtOH 0,4%, listed as HSL-C4

CCCCCCCCCC(=O)CC(=O)N[C@H]1CCOC1=O [C12HSL, N-3-oxo-dodecanoyl-L-homoserine lactone, reference compound]
agonist activity on T2R38 (in words) (T2R38): are not agonists of the receptor in our hands
percentage of surface covered by activated cells (T2R38; 0.1mM in DMSO 0.15%): 0.46% and 1.07% and 1.52% and 0.39%
percentage of surface covered by activated cells (T2R38; 0.1mM in DMSO 0.3%): 0.20% and 0.64% and 1.46% and 0.93%
specific activation of the receptor (T2R38; 0.1 mM with either 0.3% or 0.15% DMSO in the incubation buffer): did not trigger any specific activation of the receptor; also recorded: did not trigger any specific activation of T2R38
percentage of surface covered by activated cells (T2R38; [2]): 8.51% and 3.40% and 8.12% and 5.47% and 4.84% and 9.74%
percentage of surface covered by activated cells (T2R38; [3]): 2.04% and 1.92% and 1.33% and 4.51% and 5.83% and 3.09%
average calcium response, % of the one induced by 0.1 mM of PTC (T2R38): 42%
specific activation of T2R38 (T2R38): did not trigger a specific activation of T2R38
specific activation of T2R38 (T2R38; listed as HSLC12): remained without effect on the receptor
percentage of surface covered by activated cells ([1]; 0.1mM in DMSO 0.15%): 0.22% and 0.19%
percentage of surface covered by activated cells ([1]; 0.1mM in DMSO 0.3%): 0.00881% and 0.16%
percentage of surface covered by activated cells [1, 2]: 0.92% and 1.51% and 1.40% and 0.48% and 0.97% and 3.05%
percentage of surface covered by activated cells [1, 3]: 0.58% and 7.03% and 2.23% and 2.90% and 5.38% and 0.28%

CSSC [dimethyldisulfide, dimethyl disulfide]
agonist activity on T2R38 (in words) (T2R38): able to specifically trigger this receptor
EC50 (T2R38): 3000 µM
surface covered by activated cells (given as fraction) (T2R38; dimethyldisulfide 0.000251189, log10[ ] -3.6, experiment 6): 0.0087 and 0.0151
surface covered by activated cells (given as fraction) (T2R38; dimethyldisulfide 0.000398107, log10[ ] -3.4, experiment 6): 0.0033 and 0.0066
surface covered by activated cells (given as fraction) (T2R38; dimethyldisulfide 0.000630957, log10[ ] -3.2, experiment 6): 0.0100 and 0.0078
surface covered by activated cells (given as fraction) (T2R38; dimethyldisulfide 0.001, log10[ ] -3, experiment 6): 0.0079 and 0.0134
surface covered by activated cells (given as fraction) (T2R38; dimethyldisulfide 0.00158489, log10[ ] -2.8, experiment 6): 0.0310 and 0.0369
surface covered by activated cells (given as fraction) (T2R38; dimethyldisulfide 0.00398107, log10[ ] -2.4, experiment 6): 0.1269
logEC50 (T2R38; given in the concentration-response curve): -2.54
Emax (% of positive control) (T2R38; percentage of the response elicited by 0.1 mM PTC): 46 % of positive control
percentage of surface covered by activated cells ([1]; dimethyldisulfide 0.00251189, log10[ ] -2.6): 0.21% and 0.13% and 0.27% and 1.93% and 1.05% and 0.36% and 1.26%

NC(=S)Nc1ccccc1 [PTC, phenylthiocarbamide, reference compound]
percentage of surface covered by activated cells (T2R38; PTC 1e-7 M): 0.32% and 0.0439% and 0.30% and 0.38% and 0.0433% and 0.37%
percentage of surface covered by activated cells (T2R38; PTC 5.31987e-7 M): 0.29% and 0.21% and 0.40% and 0.74%
percentage of surface covered by activated cells (T2R38; PTC 7.66061e-7 M): 0.42% and 0.94% and 0.57%
percentage of surface covered by activated cells (T2R38; PTC 1e-6 M): 0.15% and 0.33% and 0.74% and 1.61% and 0.19% and 0.16%
percentage of surface covered by activated cells (T2R38; PTC 3.16456e-6 M): 0.91% and 1.80% and 0.81% and 1.93% and 1.12% and 1.19%
percentage of surface covered by activated cells (T2R38; PTC 1e-5 M): 9.30% and 8.69% and 5.20% and 5.77% and 8.28% and 3.33%
percentage of surface covered by activated cells (T2R38; PTC 0.0001 M): 16.96% and 16.52% and 12.58% and 13.19% and 14.04% and 11.95%
response of T2R38 PAV transfected cells (S7_fig raw data) (T2R38; PTC 0.1 mM, T2R38 PAV, experiments 1-5): 30% and 29% and 24% and 17% and 23%
percentage of surface covered by activated cells (T2R38; PTC 0.001 M): 16.18% and 8.32% and 10.10% and 7.45% and 11.65% and 8.92%
EC50 (T2R38; mean ± SEM of n = 3 experiments): 9.7 ± 0.4 µM
percentage of surface covered by activated cells ([1]; PTC 1e-7 M): 0.29% and 0.31% and 0.20%
percentage of surface covered by activated cells ([1]; PTC 5.31987e-7 M): 0.69% and 0.47%
percentage of surface covered by activated cells ([1]; PTC 7.66061e-7 M): 0.32% and 0.90%
percentage of surface covered by activated cells ([1]; PTC 1e-6 M): 0.45% and 0.40% and 0.59%
percentage of surface covered by activated cells ([1]; PTC 3.16456e-6 M): 0.30% and 0.15% and 0.74%
percentage of surface covered by activated cells ([1]; PTC 1e-5 M): 0.11% and 0.26% and 0.07%
percentage of surface covered by activated cells ([1]; PTC 0.0001 M): 0.06% and 0.11%
response of empty vector transfected cells (S7_fig raw data) ([1]; PTC 0.1 mM, empty vector, experiments 1-5): 0.078% and 0.55% and 0.518% and 0.35% and 0.26%
percentage of surface covered by activated cells ([1]; PTC 0.001 M): 0.59% and 0.12% and 0.20%

CCCC(=O)N[C@H]1CCOC1=O [C4HSL, N-butyryl-L-homoserine lactone, reference compound]
agonist activity on T2R38 (in words) (T2R38): are not agonists of the receptor in our hands
percentage of surface covered by activated cells (T2R38; [4]): 0.38% and 0.93% and 0.34% and 0.53% and 0.11% and 0.17%
percentage of surface covered by activated cells (T2R38; [5]): 6.92% and 3.48% and 5.97% and 2.36% and 9.56% and 4.46%
percentage of surface covered by activated cells (T2R38; [6]): 0.27% and 1.95% and 2.21% and 0.24% and 0.29% and 1.29%
average calcium response, % of the one induced by 0.1 mM of PTC (T2R38): 33%
specific activation of T2R38 (T2R38): did not trigger a specific activation of T2R38
specific activation of T2R38 (T2R38; listed as HSLC4): remained without effect on the receptor
response of T2R38 (T2R38): did not elicit a response of T2R38
response of T2R38 (T2R38; listed as HSLC4): remained without effect on the receptor
percentage of surface covered by activated cells [1, 4]: 0.08% and 2.07% and 0.35% and 0.32% and 0.65% and 0.13%
percentage of surface covered by activated cells [1, 5]: 0.56% and 1.82% and 1.06% and 0.36% and 0.33% and 0.98%
percentage of surface covered by activated cells [1, 6]: 0.40% and 0.69% and 0.43% and 0.56% and 1.49% and 0.68%
